Where “and” joins values, the source holds several entries; their conditions need not be identical. Equal values may be shown once. Read-outs that look alike come from different tables or passages of the source.
Columns and labels:
[1] = test system: antennae of male and female C. capitata; assay: Coupled GC–EAG of male volatile extract on medfly antennae; design: species or system Ceratitis capitata; settings: for electrophysiological (EAG) response, in words: GC–EAG of male volatile extract; for EAG response: number of females (F) that showed a positive EAG response: female antennae; for EAG response: number of females (F) that showed a positive EAG response / EAG response: number of males (M) that showed a positive EAG response: in a total of five replicates, GC–EAG; for EAG response: number of males (M) that showed a positive EAG response: male antennae
Experimental: Electrical responses to chemical stimuli were recorded from the antennae of both sexes using 4 day-old virgin individuals. Electroantennogram (EAG) recordings were made with Ag–AgCl glass microelectrodes filled with Ringer solution (for 1 L H2O solution: 7.2 g NaCl, 0.37 g KCl, 0.17 g CaCl2, pH 7.3–7.4). The head of a fly (both male and female), anaesthetised by chilling, was excised from the body with a microscalpel and the tip of one of the two arista was cut off with micro-scissors. The indifferent electrode was inserted in the head (from the base to the top-frontal part) and the recording electrode was positioned over the cut arista. Signals were passed through a high impedance amplifier (UN-06, Hilversum, The Netherlands) and analysed using a customised software package (Syntech). […] The oven was maintained at 30 °C for 2 min and then programmed for increments at 5 °C min^−1 to 250 °C. The carrier gas was helium. Outputs from the EAG amplifier and the FID were monitored simultaneously and analysed using the Syntech software package. […] The stimulus (2 s duration) was delivered into a purified airstream (1 l/min) flowing continuously over the preparation using a stimulus controller (Syntech CS02). Samples (10 μl) of the standard solution of test compounds (1 mg/ml in redistilled hexane) were applied in the cartridge. The control stimulus was hexane (10 μl). Five replicates were performed for each sample using antennae from 5 different flies.

CcapOBP83a-2 [2] = biological target: T1, CcapOBP83a-2 (Ceratitis capitata, UniProt W8W3U3); assay: biochemical; format: binding; settings: for IC50: read-out: IC50 (concentration of ligand halving the initial fluorescence level); for Ki: read-out: Ki (dissociation constant)
T1 sequence (W8W3U3 entry or part of it): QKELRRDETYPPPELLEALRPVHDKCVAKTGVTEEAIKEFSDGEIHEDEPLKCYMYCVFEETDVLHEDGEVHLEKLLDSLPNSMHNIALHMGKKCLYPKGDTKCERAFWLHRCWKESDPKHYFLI
Experimental: The 1-NPN/protein mixture was excited at 337 nm and the emission was recorded between 380 and 450 nm on a Perkin Elmer LS 55 Fluorescence spectrometer (Cambridge–UK) at 25 °C in a right angle configuration with a 1 cm light path quartz cuvette. The excitation and emission slits were both 5 nm. Data were recorded and graphed using FL WinLab Software (Perkin–Elmer). […] Analyses were performed by nonlinear regression curve fitting using GraphPad Prism 5 (GraphPad Software, Inc, La Jolla, USA).

CcapOBP83a-2 [3] = biological target: T1, CcapOBP83a-2; assay: Binding of fluorescent probe 1-NPN to CcapOBP83a-2 (fluorescence titration); settings: for Kd: dissociation constant (KD) of 1-NPN, protein 2 μM, 20 mM Tris–HCl pH 7.4; for saturation level of 1-NPN: protein concentration ≈2 μM
Experimental: To measure the binding affinity of the fluorescent probe 1-NPN to CcapOBP83a-2, a 2 μM solution of protein in 20 mM Tris–HCl pH 7.4 was titrated with aliquots of 1 mM 1-NPN stock to a final concentration of 0.1–50 μM in methanol. The 1-NPN/protein mixture was excited at 337 nm and the emission was recorded between 380 and 450 nm on a Perkin Elmer LS 55 Fluorescence spectrometer (Cambridge–UK) at 25 °C in a right angle configuration with a 1 cm light path quartz cuvette. The excitation and emission slits were both 5 nm. Data were recorded and graphed using FL WinLab Software (Perkin–Elmer). The affinity of other ligands was measured in competitive binding assays, using 1-NPN as fluorescent reporter at 3 μM concentration and final concentrations of each competitor from 0.1 μM to 50 μM. To determine binding constants, the fluorescent intensity values at the maximum emission (after subtracting those measured without protein) were plotted against free ligand concentrations. […] IC50 values (the concentration of ligand halving the initial fluorescence level) were used to calculate each competitor dissociation constants (KD), by the equation: KD = IC50/1 + [1 − NPN]/K1-NPN, where [1 − NPN] is the free concentration of 1 − NPN and K1-NPN is the dissociation constant of the 1-NPN/protein complex. Analyses were performed by nonlinear regression curve fitting using GraphPad Prism 5 (GraphPad Software, Inc, La Jolla, USA).

[4] = first fraction, ligand 50 μM, 1-NPN 3 μM
[5] = second fraction, ligand 50 μM, 1-NPN 3 μM

Row | Structure (SMILES) | electrophysiological (EAG) response, in words [1] | EAG response: number of females (F) that showed a positive EAG response [1] | EAG response: number of males (M) that showed a positive EAG response [1] | Int (end point fluorescent level): fluorescence intensity after the maximum quantity of chemical was added (CcapOBP83a-2 [2]; [4]) | Int (end point fluorescent level): fluorescence intensity after the maximum quantity of chemical was added (CcapOBP83a-2 [2]; [5]) | IC50 (CcapOBP83a-2 [2]; second fraction, 1-NPN 3 μM) [µM] | Ki (CcapOBP83a-2 [2]; second fraction, 1-NPN 3 μM) | Kd (CcapOBP83a-2 [3]; first fraction of CcapOBP83a-2) [µM] | Kd (CcapOBP83a-2 [3]; second fraction of CcapOBP83a-2) | saturation level of 1-NPN (CcapOBP83a-2 [3]; first fraction) [µM] | saturation level of 1-NPN (CcapOBP83a-2 [3]; second fraction) [µM] | Int (end point fluorescent level): fluorescence intensity after the maximum quantity of chemical was added (CcapOBP83a-2 [2]) | binding activity, in words (CcapOBP83a-2 [2]; first fraction) | Ki (CcapOBP83a-2 [2]; first fraction, 1-NPN 3 μM) [µM]
1 | CCC(C)C(C)=O (racemic) [(RS)-3-Methylpentan-2-one] | response only on the female antennae | 3 | 0 | 65.3 | 58.3 | – | – | – | – | – | – | – | – | –
2 | C=CC(C)(O)CCC=C(C)C (racemic) [(RS)-Linalool] | – | 3 | 4 | 66.6 | 44.7 | 41 | 6.1 µM | – | – | – | – | – | – | –
3 | c1ccc(Nc2cccc3ccccc23)cc1 [1-NPN, N-phenyl-1-naphthylamine] | – | – | – | – | – | – | – | 10.5 ± 1.4 | 0.6 µM and 0.617 µM | 10 to 20 | 5 to 10 | – | – | –
4 | CC(C)CCO [3-Methylbutan-1-ol] | – | M4F4 | M4F4 | – | – | – | – | – | – | – | – | 63.4 and 55.6 | – | –
5 | C=C/C(C)=C/CC=C(C)C [(E)-Ocimene] | response only on the female antennae | 4 | 0 | 66.3 | 50.7 | 50 | 8.2 µM and 8.17 µM | – | – | – | – | – | – | –
6 | C=CC(=C)CC/C=C(\C)CCC=C(C)C [(E)-β-Farnesene, reference compound] | – | – | – | 75.1 | 33.6 | – | 0.2 µM | – | – | – | – | – | limited degree of binding | 1.4
7 | C=C/C(C)=C/C/C=C(\C)CCC=C(C)C [(E,E)-α-Farnesene] | small responses in both male and female flies | 3 | 2 | 34.3 | 14.4 | 1.2 | 0.1 µM and 0.133 µM | – | – | – | – | – | – | 6.56
8 | C[C@@H](O)[C@@H](C)O [(RR)-2,3-Butanediol] | – | 3 | 2 | 62.9 | 58.3 | – | – | – | – | – | – | – | – | –
9 | C=C/C(C)=C\CC=C(C)C [(Z)-Ocimene] | – | M4F4 | M4F4 | 49.9 | 23.4 | 13.5 | 1.9 µM and 1.89 µM | – | – | – | – | – | – | 4.52
10 | CC1CCOC1=O (stereo not drawn) [Dihydro-3-methyl-2-(3H)-furanone] | – | 4 | 3 | 66.5 | 58.1 | – | – | – | – | – | – | – | – | –
11 | CC/C=C/CC(=O)OCC [Ethyl (E)-3-hexenoate] | – | M4F4 | M4F4 | 68.5 | 51.5 | – | – | – | – | – | – | – | – | –
12 | CCCC/C=C/CC(=O)OCC [Ethyl (E)-3-octenoate] | – | M4F4 | M4F4 | 55.6 | 24.2 | 18 | 2.41 µM | – | – | – | – | – | – | –
13 | CCCCCCCC(=O)OCC [Ethyl octanoate, reference compound] | – | – | – | 66.3 | 26.1 | 15 | 2 µM and 1.96 µM | – | – | – | – | – | – | –
14 | CC(=O)OC/C=C(\C)CCC=C(C)C [Geranyl acetate] | – | 4 | 5 | 70.4 | 17.4 | 6.5 | 0.9 µM and 0.901 µM | – | – | – | – | – | – | –
15 | c1ccc2[nH]ccc2c1 [Indole] | – | M3F3 | M3F3 | 66.2 | 60.1 | – | – | – | – | – | – | – | – | –
16 | C=CCc1ccc(OC)c(OC)c1 [Methyleugenol, reference compound] | – | – | – | 61.9 | 46.0 | 43 | 4.64 µM | – | – | – | – | – | – | –
17 | C=CC(=C)CCC=C(C)C [Myrcene] | response only on the female antennae | 4 | 0 | 77.5 | 39.6 | 10 | 0.9 µM and 0.879 µM | – | – | – | – | – | – | –
18 | OC1COCC1O (stereo not drawn) [Tetrahydro-3,4-furandiol] | – | 4 | 2 | 66.2 | 59.9 | – | – | – | – | – | – | – | – | –
19 | CC1CC(Cl)CCC1C(=O)OC(C)(C)C (stereo not drawn) [Trimedlure, t-Butyl-2-methyl-4-chlorocyclohexanecarboxylate, reference compound] | – | – | – | 66.0 | 9.8 | 2.1 | 0.3 µM and 0.322 µM | – | – | – | – | – | – | –

Reference: PMC4003389, “Identification of pheromone components and their binding affinity to the odorant binding protein CcapOBP83a-2 of the Mediterranean fruit fly, Ceratitis capitata” (Insect Biochemistry and Molecular Biology, 2014)
